According to paper PMC11270730, “Isolation and In Vitro Biological Evaluation of Triterpenes from Salacia grandifolia Leaves” (ACS Omega, 2024):

How the values were obtained:
[1] = L929 cell viability, MTT assay (CC50); conditions: mouse
Experimental: (§1) The antiviral activity of isolated compounds and extracts was evaluated against the murine coronavirus MHV-3. Initially, the viability of L929 (mouse adipose fibroblasts; ATCC CCL-1) cells was assessed using the MTT (3-(4,5-dimethylthiazol-2-yl)-2,5-diphenyltetrazolium bromide (Thermo Fisher Scientific, USA) assay.[11] Cells were cultured at 37 °C and 5% CO2 in Dulbecco’s modified Eagle medium (DMEM; Cultilab, Brazil) supplemented with 5% fetal bovine serum (FBS; Cultilab, Brazil), 100 IU/mL of penicillin (Cellofarm, Brazil), 100 μg/mL of streptomycin (Merck, Germany) and 0.25 μg/mL of amphotericin B (Cultilab, Brazil). Cells were seeded in 96-well microplates (4 × 10^4 cells per well) and added 200 μL of DMEM with 1% de FBS containing the diluted compounds and extracts to be tested (100 to 1.56 μM or 200 to 3.125 μg/mL). Serial dilutions of DMSO were used as a vehicle control. Additionally, a 10% v/v inhibition control of DMSO was used. After 72 h of incubation under the same conditions, media was removed and 100 μL of MTT diluted in DMEM (0.5 mg/mL) were added to each well and incubated for 3 h. Last, media was removed, and 100 μL of DMSO were added to each well to solubilize the formazan crystals. The absorbance was read at 570 nm using a spectrophotometer (Versamax, Molecular Devices, EUA). The percentages of cell viability inhibition were calculated as the ratio between the absorbance of cells treated with the compounds relative to the vehicle control. Linear regression was used to calculate CC50 values, considering only those data for which r^2 > 0.9. The 50% cytotoxic concentration (CC50) is defined as the highest concentration of a specific compound that reduces cell viability by 50%. All conditions were tested in two independent assays in triplicate.

THP-1 cells = assay: Cytotoxic MTT assay, THP-1; format: cell-based; conditions: Homo sapiens; THP-1, MTT, 48 h, mean ± SD of two independent experiments
Experimental: (§2) The cytotoxicity of compounds was evaluated against the K-562 (chronic myeloid leukemia, ATCC CCL-243) and THP-1 (acute monocytic leukemia, ATCC TIB-202) cell lines. […] For the cytotoxicity assessment, cells were planted in 96-well microplates (1 × 10^4 cells per well) containing RPMI 1640 medium (Roswell Park Memorial Institute, Cultilab, Campinas, SP, Brazil) supplemented with 10% FBS (Cultilab, Campinas, SP, Brazil), 100 U/mL penicillin, 100 μg/mL streptomycin, and 10 mM HEPES, pH 7.4. The cells were incubated in a humidified incubator at 37 °C with 5% CO2 until the assay was performed. […] After 48 h of incubation, 100 μL of MTT salt at a concentration of 0.5 mg/mL was added to each well. The plate was then incubated for 3 h. After the incubation period, the supernatant was removed, and 50 μL of DMSO was added to each well to solubilize the formazan crystals. The absorbance per well was measured at a wavelength of 550 nm using a microplate reader (Versamax, Molecular Devices, USA). The minimum concentration that inhibited 50% of cell viability (IC50) in the presence of the tested compounds was determined by comparing it with cells cultured without the compounds (considered 100% viable).

K-562 cells = assay: Cytotoxic MTT assay, K-562; format: cell-based; conditions: Homo sapiens, K562; K-562, MTT, 48 h, mean ± SD of two independent experiments
Experimental: as §2

MHV-3 = assay: Antiviral MTT assay against MHV-3 in L929 cells (EC50); format: cell-based, mouse hepatitis virus 3 (murine coronavirus); conditions: for EC50: Murine coronavirus, MHV-3 in L929 cells, MOI 0.1, MTT, NA: not active
Experimental: as §1
Here, the same conditions as that used for CC50 were used, with the only difference being the concentrations of the samples (up to 8-fold dilution from the CC50 values for the compounds) diluted in 100 μL and added to 100 μL of viral suspension at a multiplicity of infection (MOI) of 0.1, that is, one viral particle per 10 cells in culture. Ribavirin was used as the positive control. The EC50 value was calculated as the percentage ratio between the absorbance of infected cells treated with the compounds and cells treated only with the vehicle. Last, the selectivity index (SI) was calculated using the ratio between CC50 and EC50. All conditions were tested in two independent assays in triplicate.

SMILES: C[C@H]1C(=O)CC[C@@H]2[C@]1(C)CC[C@H]1[C@@]2(C)CC[C@@]2(C)[C@@H]3CC(C)(C)CC[C@]3(C)CC[C@]12C [Compound 2, friedelan-3-one]
- CC50 at 72 h [1]: > 100 µM

SMILES: C[C@H]1C(=O)CC[C@@H]2[C@]1(C)CC[C@H]1[C@@]2(C)CC[C@@]2(C)[C@@H]3CC(C)(C)CC[C@]3(C)C[C@H](O)[C@]12C [Compound 5, 15α-hydroxyfriedelan-3-one]
- CC50 at 72 h [1]: > 100 µM

SMILES: Nc1ccn([C@@H]2O[C@H](CO)[C@@H](O)[C@@H]2O)c(=O)n1 [cytarabine, reference compound]
- IC50 (THP-1 cells): 41 ± 8 µM

SMILES: C[C@H]1C(=O)CC[C@@H]2[C@]1(C)CC[C@H]1[C@@]2(C)CC[C@@]2(C)[C@@H]3C[C@](C)(CO)CC[C@]3(C)CC[C@]12C [Compound 8, 29-hydroxyfriedelan-3-one]
- CC50 at 72 h [1]: > 100 µM

SMILES: C[C@H]1C(=O)CC[C@@H]2[C@]1(C)CC[C@H]1[C@@]2(C)CC[C@@]2(C)[C@@H]3CC(C)(C)CC[C@]3(CO)CC[C@]12C [Compound 6, 28-hydroxyfriedelan-3-one]
- IC50 (K-562 cells): 318 ± 41 µM
- IC50 (THP-1 cells): 623 ± 12 µM
- increase in activity compared to triterpene 1 (MHV-3; MHV-3 antiviral activity, 6 versus 1): 23 times
- EC50 (MHV-3): 2.9 ± 0.3 µM
- CC50 at 72 h [1]: > 100 µM

SMILES: CC1C(=O)CCC2C1(C)CCC1C2(C)CCC2(C)C3CC(C)(C)CCC3(CO)CC(=O)C12C (centres unmarked) [Compound 1, 28-hydroxyfriedelane-3,15-dione]
- IC50 (K-562 cells): 259 ± 33 µM
- IC50 (THP-1 cells): 539 ± 43 µM
- EC50 (MHV-3): 69 ± 6 µM
- CC50 at 72 h [1]: > 100 µM

SMILES: C[C@H]1C(=O)CC[C@@H]2[C@]1(C)CC[C@H]1[C@@]2(C)CC[C@@]2(C)[C@@H]3C[C@@](C)(CO)CC[C@]3(C)CC[C@]12C [Compound 7, 30-hydroxyfriedelan-3-one]
- IC50 (K-562 cells): 361 ± 52 µM
- IC50 (THP-1 cells): 385 ± 21 µM
- CC50 at 72 h [1]: > 100 µM

SMILES: NC(=O)c1ncn([C@@H]2O[C@H](CO)[C@@H](O)[C@H]2O)n1 [ribavirin, reference compound]
- EC50 (MHV-3): < 10 µM
- CC50 at 72 h [1]: > 100 µM

SMILES: C[C@H]1[C@@H](O)CC[C@@H]2[C@]1(C)CC[C@H]1[C@@]2(C)CC[C@@]2(C)[C@@H]3CC(C)(C)CC[C@]3(C)CC[C@]12C [Compound 3, friedelan-3β-ol]
- CC50 at 72 h [1]: > 100 µM

SMILES: C[C@H]1C(=O)CC[C@@H]2[C@]1(C)CC[C@H]1[C@@]2(C)CC[C@@]2(C)[C@@H]3CC(C)(C)CC[C@]3(C)CC(=O)[C@]12C [Compound 4, friedelane-3,15-dione]
- IC50 (K-562 cells): 593 ± 44 µM
- IC50 (THP-1 cells): 350 ± 43 µM
- antiviral activity (MHV-3; MHV-3, up to 100 μM): no antiviral activity
- CC50 at 72 h [1]: > 100 µM
